System: 293T-HRE-GFP-luc cells
Test: Cell-based reporter assay for IC50 determinations (HRE-luciferase, hypoxia)
Settings: 6 hrs hypoxia (1% O2), luminescence
Procedure, shortened: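 IC50s come from four-parameter logistic fits of luminescence. Compounds in 1:3 DMSO series were added to 293T-HRE-GFP-luc cells, 30 min normoxia preceding 6 hrs at 1% O2, 37° C; HRE-luciferase signal was then measured with Steadylite Plus reagent.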

Row | SMILES | IC50 (6 h) [µM] | IC50 [µM]
1 | COCCOc1cccc(Cn2nc(-c3nc(-c4ccc(OC(F)(F)F)cc4)no3)ccc2=O)c1 [Example 177, 2-{[3-(2-methoxyethoxy)phenyl]methyl}-6-{3-[4-(trifluoromethoxy)phenyl]-1,2,4-oxadiazol-5-yl}-2,3-dihydropyridazin-3-one] | < 0.1 | 
2 | CC(C)(C)[Si](C)(C)OCCOc1cccc(Cn2nc(-c3nc(-c4ccc(OC(F)(F)F)cc4)no3)ccc2=O)c1 [Example 178, 2-[(3-{2-[(tert-butyldimethylsilyl)oxy]ethoxy}phenyl)methyl]-6-{3-[4-(trifluoromethoxy)phenyl]-1,2,4-oxadiazol-5-yl}-2,3-dihydropyridazin-3-one] |  | 0.1 to 1
3 | O=c1ccc(-c2nc(-c3ccc(OC(F)(F)F)cc3)no2)nn1Cc1cccc(OCCO)c1 [Example 179, 2-{[3-(2-hydroxyethoxy)phenyl]methyl}-6-{3-[4-(trifluoromethoxy)phenyl]-1,2,4-oxadiazol-5-yl}-2,3-dihydropyridazin-3-one] | < 0.1 | 
4 | C#CCCCC(=O)N1CCN(c2cccc(Cn3cc(-c4nc(-c5ccc(OC(F)(F)F)cc5)no4)ccc3=O)c2)CC1 [Example 180] | < 0.1 | 
5 | CC(=O)N1CCN(c2cccc(Cn3cc(-c4nc(-c5ccc(OC(F)(F)F)cc5)no4)ccc3=O)c2)CC1 [Example 182] | < 0.1 | 
6 | CCOC(=O)CN1CCN(c2cccc(Cn3cc(-c4nc(-c5ccc(OC(F)(F)F)cc5)no4)ccc3=O)c2)CC1=O [Example 183, ethyl 2-(2-oxo-4-{3-[(2-oxo-5-{3-[4-(trifluoromethoxy)phenyl]-1,2,4-oxadiazol-5-yl}-1,2-dihydropyridin-1-yl)methyl]phenyl}piperazin-1-yl)acetate] | < 0.1 | 
7 | CS(=O)(=O)C1CCN(c2cc(Cn3nc(-c4nc(-c5ccc(OC(F)(F)F)cc5)no4)ccc3=O)ccn2)CC1 [Example 184, 2-{[2-(4-methanesulfonylpiperidin-1-yl)pyridin-4-yl]methyl}-6-{3-[4-(trifluoromethoxy)phenyl]-1,2,4-oxadiazol-5-yl}-2,3-dihydropyridazin-3-one] | < 0.1 | 
8 | CN1CCN(c2cccc(Cn3cc(-c4nc(-c5ccc(SC(F)(F)F)cc5)no4)ccc3=O)c2)CC1 [Example 185, 1-{[3-(4-methylpiperazin-1-yl)phenyl]methyl}-5-(3-{4-[(trifluoromethyl)sulfanyl]phenyl}-oxadiazol-5-yl)-1,2-dihydropyridin-2-one] | < 0.1 | 
9 | CN1CCN(c2cccc(Cn3cc(-c4noc(-c5ccc(S(C)(=O)=O)cc5)n4)ccc3=O)c2)CC1 [Example 186, 5-[5-(4-methanesulfonylphenyl)-1,2,4-oxadiazol-3-yl]-1-{[3-(4-methylpiperazin-1-yl)phenyl]methyl}-1,2-dihydropyridin-2-one] | < 0.1 | 
10 | COCCOc1cccc(Cn2cc(-c3noc(-c4ccc(S(=O)(=O)C(F)(F)F)cc4)n3)ccc2=O)c1 [Example 187, 1-{[3-(2-methoxyethoxy)phenyl]methyl}-5-[5-(4-trifluoromethanesulfonylphenyl)-1,2,4-oxadiazol-3-yl]-1,2-dihydropyridin-2-one] | < 0.1 | 
11 | CN1CCN(c2cccc(Cn3cc(-c4noc(-c5ccc(S(=O)(=O)C(F)(F)F)cc5)n4)ccc3=O)c2)CC1 [Example 188, 1-{[3-(4-methylpiperazin-1-yl)phenyl]methyl}-5-[5-(4-trifluoromethanesulfonylphenyl)-1,2,4-oxadiazol-3-yl]-1,2-dihydropyridin-2-one] | < 0.1 | 
12 | CN1CCN(c2cccc(Cn3cc(-c4noc(-c5ccc(OC(F)F)cc5)n4)ccc3=O)c2)CC1 [Example 189, 5-{5-[4-(difluoromethoxy)phenyl]-1,2,4-oxadiazol-3-yl}-1-{[3-(4-methylpiperazin-1-yl)phenyl]methyl}-1,2-dihydropyridin-2-one] | < 0.1 | 
13 | COCCOc1cccc(Cn2cc(-c3noc(-c4ccc(N5CCOC5=O)cc4)n3)ccc2=O)c1 [Example 190, 1-{[3-(2-methoxyethoxy)phenyl]methyl}-5-{5-[4-(2-oxo-1,3-oxazolidin-3-yl)phenyl]-1,2,4-oxadiazol-3-yl}-1,2-dihydropyridin-2-one] | < 0.1 | 
14 | COCCOc1cccc(Cn2cc(-c3noc(-c4ccc(OC)cc4)n3)ccc2=O)c1 [Example 191, 1-{[3-(2-methoxyethoxy)phenyl]methyl}-5-[5-(4-methoxyphenyl)-1,2,4-oxadiazol-3-yl]-1,2-dihydropyridin-2-one] | < 0.1 | 
15 | COCCOc1cccc(Cn2cc(-c3noc(-c4ccc(C)cc4)n3)ccc2=O)c1 [Example 192, 1-{[3-(2-methoxyethoxy)phenyl]methyl}-5-[5-(4-methylphenyl)-1,2,4-oxadiazol-3-yl]-1,2-dihydropyridin-2-one] | < 0.1 | 
16 | COCCOc1cccc(Cn2cc(-c3noc(-c4ccc(C(F)(F)F)cc4)n3)ccc2=O)c1 [Example 193, 1-{[3-(2-methoxyethoxy)phenyl]methyl}-5-{5-[4-(trifluoromethyl)phenyl]-1,2,4-oxadiazol-3-yl}-1,2-dihydropyridin-2-one] | < 0.1 | 
17 | COCCOc1cccc(Cn2cc(-c3noc(-c4ccc(C#N)cc4)n3)ccc2=O)c1 [Example 194, 4-[3-(1-{[3-(2-methoxyethoxy)phenyl]methyl}-6-oxo-1,6-dihydropyridin-3-yl)-1,2,4-oxadiazol-5-yl]benzonitrile] | < 0.1 | 

Row | SMILES | IC50 (6 h) [µM] | IC50 [µM]
18 | COCCOc1cccc(Cn2cc(-c3noc(-c4ccc(C(C)C)cc4)n3)ccc2=O)c1 [Example 195, 1-{[3-(2-methoxyethoxy)phenyl]methyl}-5-{5-[4-(propan-2-yl)phenyl]-1,2,4-oxadiazol-3-yl}-1,2-dihydropyridin-2-one] | < 0.1 | 
19 | COCCOc1cccc(Cn2cc(-c3noc(-c4ccc(OC(C)C)cc4)n3)ccc2=O)c1 [Example 196, 1-{[3-(2-methoxyethoxy)phenyl]methyl}-5-{5-[4-(propan-2-yloxy)phenyl]-1,2,4-oxadiazol-3-yl}-1,2-dihydropyridin-2-one] | 0.1 to 1 | 
20 | COCCOc1cccc(Cn2cc(-c3noc(-c4ccc(OC(F)F)cc4)n3)ccc2=O)c1 [Example 197, 5-{5-[4-(difluoromethoxy)phenyl]-1,2,4-oxadiazol-3-yl}-1-{[3-(2-methoxyethoxy)phenyl]methyl}-1,2-dihydropyridin-2-one] | < 0.1 | 
21 | COCCOc1cccc(Cn2cc(-c3noc(-c4ccc(Cl)cc4)n3)ccc2=O)c1 [Example 198, 5-[5-(4-chlorophenyl)-1,2,4-oxadiazol-3-yl]-1-{[3-(2-methoxyethoxy)phenyl]methyl}-1,2-dihydropyridin-2-one] | < 0.1 | 
22 | CNS(=O)(=O)c1ccc(-c2nc(-c3ccc(=O)n(Cc4cccc(OCCOC)c4)c3)no2)cc1 [Example 199, 4-[3-(1-{[3-(2-methoxyethoxy)phenyl]methyl}-6-oxo-1,6-dihydropyridin-3-yl)-1,2,4-oxadiazol-5-yl]-N-methylbenzene-1-sulfonamide] | 0.1 to 1 | 
23 | COCCOc1cccc(Cn2cc(-c3noc(-c4ccc(N5CCOCC5)cc4)n3)ccc2=O)c1 [Example 200, 1-{[3-(2-methoxyethoxy)phenyl]methyl}-5-{5-[4-(morpholin-4-yl)phenyl]-1,2,4-oxadiazol-3-yl}-1,2-dihydropyridin-2-one] | < 0.1 | 
24 | COCCOc1cccc(Cn2cc(-c3noc(-c4ccc(CC#N)cc4)n3)ccc2=O)c1 [Example 201, 2-{4-[3-(1-{[3-(2-methoxyethoxy)phenyl]methyl}-6-oxo-1,6-dihydropyridin-3-yl)-1,2,4-oxadiazol-5-yl]phenyl}acetonitrile] | < 0.1 | 
25 | COCCOc1cccc(Cn2cc(-c3noc(-c4ccc(S(C)(=O)=O)cc4)n3)ccc2=O)c1 [Example 202, 5-[5-(4-methanesulfonylphenyl)-1,2,4-oxadiazol-3-yl]-1-{[3-(2-methoxyethoxy)phenyl]methyl}-1,2-dihydropyridin-2-one] | 0.1 to 1 | 
26 | COCCOc1cccc(Cn2cc(-c3noc(-c4ccc(OCC(F)(F)F)cc4)n3)ccc2=O)c1 [Example 203, 1-{[3-(2-methoxyethoxy)phenyl]methyl}-5-{5-[4-(2,2,2-trifluoroethoxy)phenyl]-1,2,4-oxadiazol-3-yl}-1,2-dihydropyridin-2-one] | < 0.1 | 
27 | CS(=O)(=O)CCCOc1cccc(Cn2cc(-c3noc(-c4ccc(N5CCOCC5)cc4)n3)ccc2=O)c1 [Example 204, 1-{[3-(3-methanesulfonylpropoxy)phenyl]methyl}-5-{5-[4-(morpholin-4-yl)phenyl]-1,2,4-oxadiazol-3-yl}-1,2-dihydropyridin-2-one] | < 0.1 | 
28 | CS(=O)(=O)CCCOc1cccc(Cn2cc(-c3noc(-c4ccc(S(C)(=O)=O)cc4)n3)ccc2=O)c1 [Example 205, 5-[5-(4-methanesulfonylphenyl)-1,2,4-oxadiazol-3-yl]-1-{[3-(3-methanesulfonylpropoxy)phenyl]methyl}-1,2-dihydropyridin-2-one] | < 0.1 | 
29 | CC(C)Oc1ccc(-c2nc(-c3ccc(=O)n(Cc4cccc(OCCCS(C)(=O)=O)c4)c3)no2)cc1 [Example 206, 1-{[3-(3-methanesulfonylpropoxy)phenyl]methyl}-5-{5-[4-(propan-2-yloxy)phenyl]-1,2,4-oxadiazol-3-yl}-1,2-dihydropyridin-2-one] | < 0.1 | 
30 | CS(=O)(=O)CCCOc1cccc(Cn2cc(-c3noc(-c4ccc(OC(F)F)cc4)n3)ccc2=O)c1 [Example 207] | < 0.1 | 
31 | COCCOc1cccc(Cn2cc(-c3noc(-c4ccc(C(C)=O)cc4)n3)ccc2=O)c1 [Example 208, 5-[5-(4-acetylphenyl)-1,2,4-oxadiazol-3-yl]-1-{[3-(2-methoxyethoxy)phenyl]methyl}-1,2-dihydropyridin-2-one] | < 0.1 | 
32 | COCCOc1cccc(Cn2cc(-c3noc(-c4ccc(C5=CCSCC5)cc4)n3)ccc2=O)c1 [Example 209, 5-{5-[4-(3,6-dihydro-2H-thiopyran-4-yl)phenyl]-1,2,4-oxadiazol-3-yl}-1-{[3-(2-methoxyethoxy)phenyl]methyl}-1,2-dihydropyridin-2-one] | < 0.1 | 
33 | CC(C)c1ccc(-c2nc(-c3ccc(=O)n(Cc4cccc(OCCCS(C)(=O)=O)c4)c3)no2)cc1 [Example 210, 1-{[3-(3-methanesulfonylpropoxy)phenyl]methyl}-5-{5-[4-(propan-2-yl)phenyl]-1,2,4-oxadiazol-3-yl}-1,2-dihydropyridin-2-one] | < 0.1 | 

Reference: patent publication US20140073634A1 (Institute For Applied Cancer Science/The University of …, priority 2012, published 2014)
